In patent publication US20260355332A1, “ANTIBODY-DRUG CONJUGATE, AND PREPARATION METHOD THEREFOR AND USE THEREOF” (MEDILINK THERAPEUTICS (SUZHOU) CO., LTD., priority 2022, published 2026):
“Also recorded” adds a separate entry of the source.

Tested on: tumor cells
Test: Assay 2: inhibitory activity of bioactive molecules on tumor cells (CCK8), overall
Format: cell-based
Details: Example 6.2; multiple tumor cell lines
Experimental: Firstly, tumor cells NUCG-4, PC-9, HT29, NCI-H358, KYSE520, A431, and A549 were cultured. The bioactive molecules or fragments of the present disclosure were co-cultured with the tumor cells, and then a CCK8 reagent (Dojindo China Co., Ltd., Cat: CKO4, Lot: JJ744) was added. Readings were taken using a microplate reader (manufacturer: Molecular Devices, model: SpectraMax M2) (detection wavelength: 450 nm) to determine the activity of dehydrogenase in the mitochondria, so as to evaluate the inhibitory effects of the bioactive molecules on cell proliferation.
The in vitro cell activity was assayed as follows: Tumor cells were digested by a conventional method using trypsin, collected in a tube, counted, resuspended in the corresponding assay medium (containing 2% FBS), and added to a 96-well plate at 5000-10000 cells/well. Bioactive molecules diluted with DMSO (starting at a concentration of 10 μM, with a 3-fold dilution (12 concentration gradients)) were added to the 96-well plate at 100 μL/well, and the plate was incubated at 37° C. with 5% CO2 for 3-4 days. Subsequently, 20 μL of CCK8 reagent was added to each well, and the mixture was allowed to react for 2-6 h. Readings were then taken using a microplate reader (detection wavelength: 450 nm).

`CC[C@@]1(O)C(=O)OCc2c1cc1n(c2=O)Cc2c-1nc1cc3c(cc1c2CCCO)OCO3` [Example A1.9, (S)-7-ethyl-7-hydroxy-14-(3-hydroxypropyl)-10,13-dihydro-11H-[1,3]dioxolo[4,5-g]pyrano[3′,4′:6,7]indolizino[1,2-b]quinoline-8,11(7H)-dione] was tested, and the “tumor cell-killing effect (in words)” value was “had tumor cell-killing effects; also recorded: stronger tumor-killing effect than Dxd in multiple tumor cell lines”.
In the case of `CC[C@@]1(O)C(=O)OCc2c1cc1n(c2=O)Cc2c-1nc1cc3c(cc1c2CCCOCNC(=O)CN)OCO3` [Example B1.14, (S)-2-amino-N-((3-(7-ethyl-7-hydroxy-8,11-dioxo-7,8,11,13-tetrahydro-10H-[1,3]dioxolo[4,5-g]pyrano[3′,4′:6,7]indolizino[1,2-b]quinolin-14-yl)propoxy)methyl)acetamide], the “tumor cell-killing effect (in words)” value is reported as “had tumor cell-killing effects”.
